The record followed here is patent publication US9434743B2, “Indazole derivatives” (TAKEDA PHARMACEUTICAL COMPANY LIMITED, priority 2012, dated 2016).

Assay [1] concerns the target T1, human MetAP2 enzyme (Homo sapiens, UniProt P50579). Briefly: MetAP2 enzyme assay, enzyme complexed with cobalt ions. Particulars: MetAP2 Co pIC50, MetAP2 enzyme complexed with cobalt ions; Met-AMC substrate at Km.
Assay [2] concerns the target T1, human MetAP2 enzyme. Briefly: MetAP2 enzyme assay, enzyme complexed with manganese ions. Particulars: MetAP2 Mn pIC50, MetAP2 enzyme complexed with manganese ions; Met-AMC substrate at Km.

SMILES strings stand for the structures.

T1 sequence (P50579 whole entry): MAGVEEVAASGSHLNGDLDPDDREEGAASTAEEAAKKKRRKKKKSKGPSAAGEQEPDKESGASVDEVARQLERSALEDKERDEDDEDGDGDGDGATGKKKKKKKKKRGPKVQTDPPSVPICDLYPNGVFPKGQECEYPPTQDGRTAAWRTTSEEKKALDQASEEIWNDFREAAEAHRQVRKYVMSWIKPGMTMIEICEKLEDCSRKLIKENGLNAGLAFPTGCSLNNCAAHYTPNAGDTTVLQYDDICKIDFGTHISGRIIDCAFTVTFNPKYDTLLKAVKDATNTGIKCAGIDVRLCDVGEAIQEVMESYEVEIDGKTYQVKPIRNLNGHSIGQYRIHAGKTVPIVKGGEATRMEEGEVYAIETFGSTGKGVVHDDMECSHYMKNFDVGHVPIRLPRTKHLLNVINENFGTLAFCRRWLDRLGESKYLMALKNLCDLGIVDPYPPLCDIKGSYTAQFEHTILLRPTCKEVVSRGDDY

One may read the IC50 as the point on the concentration scale where inhibition reaches its midpoint. For the compound `O=C(NCCO)c1cncc(-c2cc(C(F)(F)F)cc3[nH]ncc23)c1` [Example 290, N-(2-hydroxyethyl)-5-(6-(trifluoromethyl)-1H-indazol-4-yl)nicotinamide], the values for the IC50 against human MetAP2 enzyme [1] and at human MetAP2 enzyme [2] were 251 nM and 7.94 nM, respectively.

Regarding `COc1ncc(-c2cc(C(F)(F)F)cc3[nH]ncc23)c2cc[nH]c12` [Example 291, 4-(7-methoxy-1H-pyrrolo[2,3-c]pyridin-4-yl)-6-(trifluoromethyl)-1H-indazole], the IC50 against human MetAP2 enzyme [1] was 63.1 nM; at human MetAP2 enzyme [2] it was 10 nM.

Take `Cc1ncc(-c2cc(C(F)(F)F)cc3[nH]ncc23)c2cc[nH]c12` [Example 292, 4-(7-methyl-1H-pyrrolo[2,3-c]pyridin-4-yl)-6-(trifluoromethyl)-1H-indazole]: the half-maximal inhibitory concentration (IC50) against human MetAP2 enzyme [1] is 39.8 nM; against human MetAP2 enzyme [2] it was 6.31 nM.

Take `COCCNc1ncc(-c2cc(C(F)(F)F)cc3[nH]ncc23)cn1` [Example 293, N-(2-methoxyethyl)-5-(6-(trifluoromethyl)-1H-indazol-4-yl)pyrimidin-2-amine]: the IC50 against human MetAP2 enzyme [1] is 100 nM; on human MetAP2 enzyme [2], 6.31 nM.

Turning to `O=C(c1ncc(-c2cc(C(F)(F)F)cc3[nH]ncc23)cn1)N1CCOCC1` [Example 294, morpholino(5-(6-(trifluoromethyl)-1H-indazol-4-yl)pyrimidin-2-yl)methanone], the concentration for half-maximal inhibition (IC50) against human MetAP2 enzyme [1] is 1580 nM; against human MetAP2 enzyme [2], 31.6 nM.

On to `NC(=O)c1ncc(-c2cc(C(F)(F)F)cc3[nH]ncc23)cn1` [Example 295, 5-(6-(trifluoromethyl)-1H-indazol-4-yl)pyrimidine-2-carboxamide], for which the IC50 against human MetAP2 enzyme [1] was 200 nM; against human MetAP2 enzyme [2], 6.31 nM.

Consider `CN1C(=O)COc2ccc(-c3cc(C(F)(F)F)cc4[nH]ncc34)cc21` [Example 296, 4-methyl-6-(6-(trifluoromethyl)-1H-indazol-4-yl)-2H-benzo[b][1,4]oxazin-3(4H)-one], for which the IC50 was 20 nM at human MetAP2 enzyme [1] and 6.31 nM against human MetAP2 enzyme [2].

With `CN1CCN(C(=O)c2c[nH]c(=O)c(-c3cc(C(F)(F)F)cc4[nH]ncc34)c2)CC1` [Example 297, 5-(4-methylpiperazine-1-carbonyl)-3-(6-(trifluoromethyl)-1H-indazol-4-yl)pyridin-2(1H)-one], the half-inhibitory concentration (IC50) against human MetAP2 enzyme [1] was 158 nM; against human MetAP2 enzyme [2] it was 6.31 nM.

On to `O=C(c1c[nH]c(=O)c(-c2cc(C(F)(F)F)cc3[nH]ncc23)c1)N1CCOCC1` [Example 298, 5-(morpholine-4-carbonyl)-3-(6-(trifluoromethyl)-1H-indazol-4-yl)pyridin-2(1H)-one], for which the IC50 on human MetAP2 enzyme [1] is 398 nM; on human MetAP2 enzyme [2] it was 10 nM.

`O=C(NCCO)c1c[nH]c(=O)c(-c2cc(C(F)(F)F)cc3[nH]ncc23)c1` [Example 299, N-(2-hydroxyethyl)-6-oxo-5-(6-(trifluoromethyl)-1H-indazol-4-yl)-1,6-dihydropyridine-3-carboxamide]: the IC50 against human MetAP2 enzyme [1] is 398 nM; against human MetAP2 enzyme [2] it was 7.94 nM.

For the compound `Cn1cc(-c2cc(C(F)(F)F)cc3[nH]ncc23)c(=O)n(CC(N)=O)c1=O` [Example 300, 2-(3-methyl-2,6-dioxo-5-(6-(trifluoromethyl)-1H-indazol-4-yl)-2,3-dihydropyrimidin-1(6H)-yl)acetamide], the concentration for half-maximal inhibition (IC50) against human MetAP2 enzyme [1] was 398 nM; against human MetAP2 enzyme [2], 12.6 nM.

As to `CNC(=O)Cn1c(=O)c(-c2cc(C(F)(F)F)cc3[nH]ncc23)cn(C)c1=O` [Example 301, N-methyl-2-(3-methyl-2,6-dioxo-5-(6-(trifluoromethyl)-1H-indazol-4-yl)-2,3-dihydropyrimidin-1(6H)-yl)acetamide], the half-inhibitory concentration (IC50) is 1000 nM on human MetAP2 enzyme [1] and 15.8 nM against human MetAP2 enzyme [2].

For the compound `CCNC(=O)Cn1c(=O)c(-c2cc(C(F)(F)F)cc3[nH]ncc23)cn(C)c1=O` [Example 302, N-ethyl-2-(3-methyl-2,6-dioxo-5-(6-(trifluoromethyl)-1H-indazol-4-yl)-2,3-dihydropyrimidin-1(6H)-yl)acetamide], the IC50 on human MetAP2 enzyme [1] was 501 nM; at human MetAP2 enzyme [2] it was 6.31 nM.

On to `Cn1cc(-c2cc(C(F)(F)F)cc3[nH]ncc23)c(=O)n(CCO)c1=O` [Example 303, 3-(2-hydroxyethyl)-1-methyl-5-(6-(trifluoromethyl)-1H-indazol-4-yl)pyrimidine-2,4(1H,3H)-dione], for which the IC50 is 1000 nM against human MetAP2 enzyme [1] and 12.6 nM against human MetAP2 enzyme [2].

Turning to `COc1cc(C(N)=O)ccc1-c1cc(C(F)(F)F)cc2[nH]ncc12` [Example 306, 3-methoxy-4-(6-(trifluoromethyl)-1H-indazol-4-yl)benzamide], the IC50 against human MetAP2 enzyme [1] is 15.8 nM; at human MetAP2 enzyme [2] it was 6.31 nM.

Take `O=C(NCCO)c1cc(-c2cc(C(F)(F)F)cc3[nH]ncc23)ccn1` [Example 308, N-(2-hydroxyethyl)-4-(6-(trifluoromethyl)-1H-indazol-4-yl)picolinamide]: the IC50 on human MetAP2 enzyme [1] was 79.4 nM; against human MetAP2 enzyme [2], 6.31 nM.

As to `CN(C)C(=O)Cn1c(=O)c(-c2cc(C(F)(F)F)cc3[nH]ncc23)cn(C)c1=O` [Example 309, N,N-dimethyl-2-(3-methyl-2,6-dioxo-5-(6-(trifluoromethyl)-1H-indazol-4-yl)-2,3-dihydropyrimidin-1(6H)-yl)acetamide], the IC50 against human MetAP2 enzyme [1] was 1000 nM; at human MetAP2 enzyme [2] it was 20 nM.

For the compound `Cn1cc(-c2cc(C(F)(F)F)cc3[nH]ncc23)c(=O)n(CC(=O)N2CCOCC2)c1=O` [Example 310, 1-methyl-3-(2-morpholino-2-oxoethyl)-5-(6-(trifluoromethyl)-1H-indazol-4-yl)pyrimidine-2,4(1H,3H)-dione], the IC50 at human MetAP2 enzyme [1] was 1000 nM; against human MetAP2 enzyme [2], 20 nM.

Turning to `Cn1cc(-c2cc(C(F)(F)F)cc3[nH]ncc23)c(=O)n(Cc2ccc(F)cc2)c1=O` [Example 311, 3-(4-fluorobenzyl)-1-methyl-5-(6-(trifluoromethyl)-1H-indazol-4-yl)pyrimidine-2,4(1H,3H)-dione], the half-maximal inhibitory concentration (IC50) is 1000 nM at human MetAP2 enzyme [1] and 63.1 nM against human MetAP2 enzyme [2].

Take `Cn1cc(-c2cc(C(F)(F)F)cc3[nH]ncc23)c(=O)n(CC#N)c1=O` [Example 312, 2-(3-methyl-2,6-dioxo-5-(6-(trifluoromethyl)-1H-indazol-4-yl)-2,3-dihydropyrimidin-1(6H)-yl)acetonitrile]: the results for the IC50 against human MetAP2 enzyme [1] and at human MetAP2 enzyme [2] were 1000 nM and 25.1 nM, respectively.

Regarding `Cn1cc(-c2cc(C(F)(F)F)cc3[nH]ncc23)c(=O)n(CCN2CCOCC2)c1=O` [Example 313, 1-methyl-3-(2-morpholinoethyl)-5-(6-(trifluoromethyl)-1H-indazol-4-yl)pyrimidine-2,4(1H,3H)-dione], the 50% inhibitory concentration (IC50) on human MetAP2 enzyme [1] was 1580 nM; against human MetAP2 enzyme [2] it was 25.1 nM.

Consider `Cn1cc(C(=O)N2CCOCC2)cc(-c2cc(C(F)(F)F)cc3[nH]ncc23)c1=O` [Example 314, 1-methyl-5-(morpholine-4-carbonyl)-3-(6-(trifluoromethyl)-1H-indazol-4-yl)pyridin-2(1H)-one], for which the half-inhibitory concentration (IC50) was 631 nM against human MetAP2 enzyme [1] and 20 nM at human MetAP2 enzyme [2].

Take `Cn1cc(C(=O)NCCO)cc(-c2cc(C(F)(F)F)cc3[nH]ncc23)c1=O` [Example 315, N-(2-hydroxyethyl)-1-methyl-6-oxo-5-(6-(trifluoromethyl)-1H-indazol-4-yl)-1,6-dihydropyridine-3-carboxamide]: the IC50 against human MetAP2 enzyme [1] is 316 nM; on human MetAP2 enzyme [2], 10 nM.

For the compound `COc1ccc(CC(=O)N2CCOCC2)cc1-c1cc(C(F)(F)F)cc2[nH]ncc12` [Example 316, 2-(4-methoxy-3-(6-(trifluoromethyl)-1H-indazol-4-yl)phenyl)-1-morpholinoethanone], the IC50 was 50.1 nM against human MetAP2 enzyme [1] and 10 nM on human MetAP2 enzyme [2].

Consider `Cc1nn(CC(=O)N2CCOCC2)c(C)c1-c1cc(C(F)(F)F)cc2[nH]ncc12` [Example 317, 2-(3,5-dimethyl-4-(6-(trifluoromethyl)-1H-indazol-4-yl)-1H-pyrazol-1-yl)-1-morpholinoethanone], for which the IC50 on human MetAP2 enzyme [1] was 63.1 nM; at human MetAP2 enzyme [2] it was 20 nM.

`COc1cc(C(=O)N2CCOCC2)ccc1-c1cc(C(F)(F)F)cc2[nH]ncc12` [Example 318, (3-methoxy-4-(6-(trifluoromethyl)-1H-indazol-4-yl)phenyl)(morpholino)methanone]: the IC50 on human MetAP2 enzyme [1] was 39.8 nM; on human MetAP2 enzyme [2], 12.6 nM.

For the compound `CN(C)CCn1c(=O)c(-c2cc(C(F)(F)F)cc3[nH]ncc23)cn(C)c1=O` [Example 319, 3-(2-(dimethylamino)ethyl)-1-methyl-5-(6-(trifluoromethyl)-1H-indazol-4-yl)pyrimidine-2,4(1H,3H)-dione], the IC50 on human MetAP2 enzyme [1] is 1260 nM; at human MetAP2 enzyme [2] it was 39.8 nM.

As to `COc1ccc(CC(=O)NCCO)cc1-c1cc(C(F)(F)F)cc2[nH]ncc12` [Example 320, N-(2-hydroxyethyl)-2-(4-methoxy-3-(6-(trifluoromethyl)-1H-indazol-4-yl)phenyl)acetamide], the IC50 against human MetAP2 enzyme [1] is 25.1 nM; against human MetAP2 enzyme [2] it was 15.8 nM.

Turning to `NC(=O)c1ccc(-c2cc(C(F)(F)F)cc3[nH]ncc23)c(F)c1` [Example 321, 3-fluoro-4-(6-(trifluoromethyl)-1H-indazol-4-yl)benzamide], the 50% inhibitory concentration (IC50) is 20 nM against human MetAP2 enzyme [1] and 15.8 nM on human MetAP2 enzyme [2].

`COCc1[nH]nc(C)c1-c1cc(C(F)(F)F)cc2[nH]ncc12` [Example 323, 4-(5-(methoxymethyl)-3-methyl-1H-pyrazol-4-yl)-6-(trifluoromethyl)-1H-indazole]: the IC50 against human MetAP2 enzyme [1] is 10 nM; on human MetAP2 enzyme [2] it was 12.6 nM.

Turning to `CC(=O)Cn1nc(C)c(-c2cc(C(F)(F)F)cc3[nH]ncc23)c1C` [Example 324, 1-(3,5-dimethyl-4-(6-(trifluoromethyl)-1H-indazol-4-yl)-1H-pyrazol-1-yl)propan-2-one], the IC50 was 63.1 nM on human MetAP2 enzyme [1] and 31.6 nM at human MetAP2 enzyme [2].

Turning to `COc1ccc(C(=O)N2CCN(C)C(=O)C2)cc1-c1cc(C(F)(F)F)cc2[nH]ncc12` [Example 325, 4-(4-methoxy-3-(6-(trifluoromethyl)-1H-indazol-4-yl)benzoyl)-1-methylpiperazin-2-one], the half-inhibitory concentration (IC50) was 63.1 nM against human MetAP2 enzyme [1] and 25.1 nM against human MetAP2 enzyme [2].
